Tests used:
ALK [1] = assay: Western blot of ALK and AKT phosphorylation in NB1 neuroblastoma cells (heparin dose response, other glycosaminoglycans); format: cell-based; conditions: heparin 0-100 μg/mL, other glycosaminoglycans at 10 μg/mL
Protocol: NB1 neuroblastoma cells were treated with increasing doses of heparin (0, 0.001, 0.01, 0.1, 1, 10, 100 μg/mL heparin), and phosphorylation of ALK and AKT was monitored by Western blot analysis. Various glycosaminoglycans at 10 μg/mL were also assessed for their ability to activate ALK. An ALK-agonistic mAb was used as a positive control for pALK and pAKT.

ALK [2] = assay: SOS inhibition of heparin-induced phosphorylation in NB1 neuroblastoma cells; format: cell-based; conditions: SOS 0-10 mg/mL along with 10 μg/mL heparin
Protocol: FIG. 4: Heparin induced activation of ALK is inhibited by sucrose-octasulfate (SOS).
NB1 neuroblastoma cells were treated with increasing doses of SOS (0, 0.001, 0.01, 0.1, 1, and 10 mg/mL) along with 10 μg/mL of heparin.

[3] = target: FL-ECD binding to heparin; assay: SPR competition: inhibition of FL-ECD binding to heparin surface
Protocol: FIG. 8: Sucrose octasulfate (SOS) inhibits ALK binding to heparin in a dose-dependent manner, as measured by SPR. A titration of SOS was pre-incubated with 350 nM of FL-ECD. These complexes were then injected over the heparin surface.
These complexes were then injected over the heparin surface. […] In addition, the IC50 and inhibition constant values indicate a high degree of specificity for the interaction between heparin and ALK.
A BIACORE™ T100 instrument was used at 25° C. using 25 mM Hepes, 300 mM NaCl, 10% Glycerol, pH 7.4. All reagents were dialyzed with this buffer prior to use. Heparin-biotin (Sigma) sold as ≥97% pure was further purified using PD-10 pre-packed columns (GE-Healthcare) to remove free biotin in solution. Heparin-biotin was then immobilized on an assembled NeutrAvidin surface (amine coupled on a CM4 Series-S Biacore chip): three surfaces were produced with different concentrations of immobilized heparin by varying contact time from 48 to 240 s, and excess ligand was removed. Due to the heterogeneous nature of heparins, the surface was a combination of many chain lengths of heparin. Three-fold dilutions of FL-ECD and ΔN-ECD were injected sequentially over a reference surface without heparin and three heparin surfaces. The surface was regenerated between cycles with 2.5 M NaCl, 5 mM Acetic Acid, pH 4.5. For the SOS competition assay, serial dilutions of SOS were pre-incubated with 0.350 μM FL-ECD and then injected over the chip. Data were analyzed using the BiaCore T100 software.

ALK [4] = assay: Western blot of ALK and MAPK phosphorylation in NB1 neuroblastoma cells; format: cell-based; conditions: heparin 10 μg/mL
Protocol: FIG. 2: Heparin, but neither PTN or MK, induces ALK tyrosine phosphorylation. […] An agonistic anti-ALK monoclonal antibody was used as a positive control for activation of ALK and MAPK.
NB1 neuroblastoma cells were treated with heparin (Hep), pleiotrophin (PTN), and midkine (MK) to determine the influence of each on ALK phosphorylation. […] An agonistic anti-ALK monoclonal antibody was used as a positive control for activation of ALK and MAPK.
Target sequence in this assay (Q9UM73 19-222 limits assumed): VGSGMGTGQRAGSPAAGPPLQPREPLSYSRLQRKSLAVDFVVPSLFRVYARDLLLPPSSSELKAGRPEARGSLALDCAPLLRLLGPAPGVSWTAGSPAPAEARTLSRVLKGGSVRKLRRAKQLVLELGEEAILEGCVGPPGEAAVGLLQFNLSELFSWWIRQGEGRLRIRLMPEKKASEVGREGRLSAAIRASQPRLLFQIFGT

Dextran sulfate
phosphorylation of ALK and AKT (ALK [1]): induce phosphorylation of ALK and AKT

O=S(=O)(O)OC[C@H]1O[C@@](COS(=O)(=O)O)(O[C@H]2O[C@H](COS(=O)(=O)O)[C@@H](OS(=O)(=O)O)[C@H](OS(=O)(=O)O)[C@H]2OS(=O)(=O)O)[C@@H](OS(=O)(=O)O)[C@@H]1OS(=O)(=O)O [SOS, Sucrose-octasulfate]
inhibition of heparin-induced phosphorylation of ALK, AKT and MAPK (ALK [2]): capable of inhibiting heparin-induced phosphorylation of ALK, AKT, and MAPK in a dose dependent manner | Ki ([3]; SPR SOS competition with 350 nM FL-ECD, read-out: inhibition constant (Ki)): 2250 nM | IC50 ([3]; SPR, SOS pre-incubated with 350 nM FL-ECD, Rmax values): 6500 nM | Kd ([3]; calculated using the Cheng-Prusoff equation, read-out: KD for SOS/FL-ECD binding): 2250 nM

B1: PTN: secreted protein Pleiotrophin, proposed as physiological ALK ligand (protein)
chain: GKKEKPEKKVKKSDCGEWQWSVCVPTSGDCGLGTREGTRTGAECKQTMKTQRCKIPCNWKKQFGAECKYQFQAWGECDLNTALKTRTGSLKRALHNAECQKTVTISKPCGKLTKPKPQAESKKKKKEGKKQEKMLD
ALK (tyrosine) phosphorylation (ALK [4]): neither PTN nor MK influence ALK phosphorylation

B2: MK: secreted protein Midkine, proposed as physiological ALK ligand (protein)
chain: VAKKKDKVKKGGPGSECAEWAWGPCTPSSKDCGVGFREGTCGAQTQRIRCRVPCNWKKEFGADCKYKFENWGACDGGTGTKVRQGTLKKARYNAQCQETIRVTKPCTPKTKAKAKAKKGKGKD
ALK (tyrosine) phosphorylation (ALK [4]): neither PTN nor MK influence ALK phosphorylation
